Article PMC10376691, “Inhibition of Acetylcholinesterase and Amyloid-β Aggregation by Piceatannol and Analogs: Assessing In Vitro and In Vivo Impact on a Murine Model of Scopolamine-Induced Memory Impairment” (Antioxidants, 2023)
Entries after “also recorded” stand apart in the source; their conditions may differ.

Experiments:
[1] = system: scopolamine-induced amnesiac ICR mice; conditions: pre-treatment 40 mg/kg; cited from earlier work
[2] = cited from earlier work
[3] = DPPH radical scavenging activity; conditions: 120 μM DPPH in methanol, 37 °C, 20 min
Method: DPPH radical scavenging activity was assayed following a previous report, with some modifications. […] DMSO was used instead of a sample solution in the blank group. […] The scavenging activity of the DPPH radical (%) was calculated with the following equation: (△A515blank − △A515sample) ÷ △A515blank × 100%. The IC50 of the DPPH radical scavenging activity of PIC and its analogs or that of Trolox was calculated from each linear equation by three test concentrations and their radical scavenging activities.

recombinant human AChE = target: T1, recombinant human AChE (Homo sapiens, UniProt P22303); assay: AChE inhibitory activity in vitro (acetylthiocholine/DTNB); type: biochemical; conditions: calculated from 100, 200, 500 μM; read-out: IC50 of the anti-AChE activity
T1 construct: purchased R&D Systems Inc. (Minneapolis, MN, USA)
T1 sequence (P22303 32-614): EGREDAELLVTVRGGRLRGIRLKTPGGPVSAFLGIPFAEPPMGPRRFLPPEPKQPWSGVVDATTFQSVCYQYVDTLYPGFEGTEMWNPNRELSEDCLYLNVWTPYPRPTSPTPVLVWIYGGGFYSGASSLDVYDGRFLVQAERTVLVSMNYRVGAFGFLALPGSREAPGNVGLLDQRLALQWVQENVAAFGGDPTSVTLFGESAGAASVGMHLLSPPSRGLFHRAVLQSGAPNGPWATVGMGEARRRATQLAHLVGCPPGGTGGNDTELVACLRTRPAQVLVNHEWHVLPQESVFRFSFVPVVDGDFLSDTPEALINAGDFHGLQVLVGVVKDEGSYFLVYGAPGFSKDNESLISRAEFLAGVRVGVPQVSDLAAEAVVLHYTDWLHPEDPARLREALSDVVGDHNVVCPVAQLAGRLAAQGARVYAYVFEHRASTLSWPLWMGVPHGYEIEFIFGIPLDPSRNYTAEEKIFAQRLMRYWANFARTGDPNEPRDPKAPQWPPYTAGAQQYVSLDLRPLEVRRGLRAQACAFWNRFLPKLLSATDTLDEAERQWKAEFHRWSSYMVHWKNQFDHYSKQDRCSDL
Method: Commercially synthesized acetylthiocholine iodide was hydrolyzed using AChE to release thiocholine, which was coupled with DTNB to generate the yellowish 5-thio-2-nitrobenzoate for in vitro AChE activity assays. For the AChE inhibitory activity assay, each analog was dissolved in the DMSO, and final concentrations of 100, 200, and 500 μM were used for comparisons. An equal volume of DMSO instead of the sample solution was used in the blank group and expressed as 100% AChE activity. […] AChE inhibition (%) was calculated as follows: [(A405blank − A405sample)/(A405blank)] × 100%.

Aβ peptide (1–42) = target: T2, Aβ peptide (1–42) (Homo sapiens, UniProt P05067); assay: biochemical; conditions: 10 μM Aβ working solution, ThT, 37 °C, 24 h; read-out: IC50 of the anti-Aβ peptide (1–42) aggregation
T2 construct: The Aβ peptide (1–42) was synthesized and purchased from Kelowna International Scientific Inc; purchased Kelowna International Scientific Inc. (New Taipei, Taiwan); host or cells: chemical synthesis
T2 sequence (P05067 672-713): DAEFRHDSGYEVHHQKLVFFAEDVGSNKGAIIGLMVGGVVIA
Method: To prepare the 10 μM Aβ peptide working solution, commercial Aβ peptide was first weighted and dissolved in HFIP to 1 mM. Next, the solvent was evaporated in a hood and then re-dissolved using 100 μL of 60 mM NaOH. It was then diluted to 10 μM working solutions with 50 mM phosphate buffer (pH 7.4, containing 150 mM sodium chloride and 1 mM EDTA), following previous reports. […] DMSO instead of the sample solution was used as the control. The 50 mM phosphate buffer was used instead of the Aβ working solution as the sample blank. […] The IC50 of the inhibition against the Aβ aggregation of PIC and its analogs was calculated from each linear equation using three test concentrations and their inhibition capacities.

SH-SY5Y cells [4] = assay: Neuroprotection against Aβ peptide (25–35)-induced cell deaths (MTT); type: cell-based, human; conditions: pre-treatment 1, 2 and 10 μM for 24 h, then 40 μg/mL Aβ (25–35) 24 h; vs control p < 0.05
Method: The human SH-SY5Y neuroblastoma cell lines (CRL-2266, Lot No. 58979771) were purchased from American Type Culture Collection (Manassas, VA, USA) and used as models to investigate PIC and its analogs for neuroprotective activities against Aβ-induced cell deaths and the stimulation of neurite outgrowths. The SH-SY5Y cells were grown in DMEM/F-12 medium supplemented with 10% FBS at 37 °C under a humidified atmosphere and 5% CO2 [41]. […]. The SH-SY5Y cells (10,000 cells/well) were seeded and cultured in a DMEM/F-12 medium containing 10% FBS for 24 h at 37 °C under a humidified atmosphere and 5% CO2. […] The medium was then removed, and 40 μg/mL Aβ peptide (25–35) (dissolved in PBS) or an equal aliquot of PBS was added to the medium for another 24 h culture. The MTT was used to evaluate cell viability, and the absorbance at 570 nm was determined. The DMSO used instead of the sample solution was blank (recognized as 100%), and each treatment was expressed as relative cell viability (%). To study the stimulation of neurite outgrowth, the SH-SY5Y cells (5000 cells/well) were seeded on a 96-well plate pre-coated with poly-L-lysine and then cultured in the DMEM/F-12 medium containing 10% FBS overnight at 37 °C under a humidified atmosphere and 5% CO2. After being removed from the culture medium, each PIC, GNT, RHA, and isoRHA (at a final concentration of 10 μM in the 0.1%DMSO) or 0.1% DMSO (the control) was added to the DMEM/F-12 medium containing 10% FBS and refreshed every three days. On day 3 and day 6, each of the culture plates was photographed using an inverted microscope (ECLIPSE TS100, Nikon Instruments Inc., Tokyo, Japan). The culture medium was removed and washed with PBS, and the cultured cells in each well were fixed with 4% paraformaldehyde. To measure cell viability and quantify the neurite outgrowths of the treated SH-SY5Y in a 96-well plate, the neurite outgrowth staining kit (a two-color fluorescence assay kit) was used, following a previous report or the protocol in the manufacturer’s manual (publication number: MAN0007224), which included a cell membrane-stained fluorescent dye (orange-red fluorescence), a cell viability indicator (green fluorescence), and a reagent for background masking. The fluorescence ratios of Ex555nm/Em565nm and Ex495nm/Em515nm were determined for the neurite outgrowths and the cell viabilities, respectively. The value for the control was recognized as 100%, and each treatment was expressed relative to the control.

[5] = Neurite outgrowth and cell viability, two-color fluorescence assay kit; type: cell-based; conditions: human, SH-SY5Y neuroblastoma cells, 3-day or 6-day treatment, green fluorescence, read-out: cell viability relative to the control
Method: (§1) The SH-SY5Y cells were grown in DMEM/F-12 medium supplemented with 10% FBS at 37 °C under a humidified atmosphere and 5% CO2 [41]. […] The MTT was used to evaluate cell viability, and the absorbance at 570 nm was determined. The DMSO used instead of the sample solution was blank (recognized as 100%), and each treatment was expressed as relative cell viability (%). To study the stimulation of neurite outgrowth, the SH-SY5Y cells (5000 cells/well) were seeded on a 96-well plate pre-coated with poly-L-lysine and then cultured in the DMEM/F-12 medium containing 10% FBS overnight at 37 °C under a humidified atmosphere and 5% CO2. After being removed from the culture medium, each PIC, GNT, RHA, and isoRHA (at a final concentration of 10 μM in the 0.1%DMSO) or 0.1% DMSO (the control) was added to the DMEM/F-12 medium containing 10% FBS and refreshed every three days. On day 3 and day 6, each of the culture plates was photographed using an inverted microscope (ECLIPSE TS100, Nikon Instruments Inc., Tokyo, Japan). The culture medium was removed and washed with PBS, and the cultured cells in each well were fixed with 4% paraformaldehyde. To measure cell viability and quantify the neurite outgrowths of the treated SH-SY5Y in a 96-well plate, the neurite outgrowth staining kit (a two-color fluorescence assay kit) was used, following a previous report or the protocol in the manufacturer’s manual (publication number: MAN0007224), which included a cell membrane-stained fluorescent dye (orange-red fluorescence), a cell viability indicator (green fluorescence), and a reagent for background masking. […] The value for the control was recognized as 100%, and each treatment was expressed relative to the control.

SH-SY5Y cells [6] = assay: as above; type: cell-based; conditions: 10 μM
Method: as §1

[7] = read-out: Cmax of metabolite; after intravenous PIC 90 μmole/kg (21.98 mg/kg), SD rats; cited from earlier work
[8] = system: scopolamine-induced mice with cognitive impairment; conditions: one-month pre-treatment via cannula into the third ventricle, total 65 ng/month/head; cited from earlier work
early Alzheimer’s = conditions: 18-month phase-3 trial; cited from earlier work

Molecule: Oc1ccc([C@H]2c3c(O)cc(O)cc3[C@H]3c4c(cc(O)cc4[C@@H]2c2cc(/C=C/c4cc(O)cc5c4[C@H](c4cc(O)cc(O)c4)[C@@H](c4ccc(O)cc4)O5)ccc2O)O[C@@H]3c2ccc(O)cc2)cc1 [vitisin A]
- learning and memory functions via the passive avoidance test [1]: improved learning and memory functions

Molecule: OC[C@H]1O[C@@H](Oc2cc(/C=C/c3cc(O)cc(O)c3)ccc2O)[C@H](O)[C@@H](O)[C@@H]1O [piceatannol-3′-O-β-D-glucopyranoside]
- crossing of the BBB [2]: reported to cross the BBB

Molecule: COc1cc(C=Cc2cc(O)cc(O)c2)ccc1O [isoRHA, 3,5,4′-trihydroxy-3′-methoxystilbene]
- IC50 [3]: 72.9 µM
- IC50 (recombinant human AChE): 322 µM
- IC50 (Aβ peptide (1–42)): 1.94 µM
- neuroprotection: cell viability against Aβ peptide (25–35)-induced cell deaths (SH-SY5Y cells [4]): elevated cell viabilities
- viability at 10 µM [5]: 80%
- stimulation of neurite outgrowths (SH-SY5Y cells [6]; 3-day or 6-day treatment, orange-red fluorescence, vs control): stimulate neurite outgrowths; also recorded: showed stimulated activities toward neurite outgrowths; also recorded: showed stimulatory activity in neurite outgrowths
- total neurite lengths in living SH-SY5Y cells, fold of the control (SH-SY5Y cells [6]; calculated): 1.375 fold
- Cmax [7]: 5.08 ± 0.31 µM

Molecule: Oc1ccc([C@H]2c3c(O)cc(O)cc3[C@H]3c4c(cc(O)cc4[C@@H]2O)O[C@@H]3c2ccc(O)cc2)cc1 [ampelopsin A]
- learning behavior, passive avoidance test and novel object recognition [8]: clear restoration of learning behavior

B1: lecanemab (antibody, chains of the INN, looked up, V domains shown)
VH: EVQLVESGGGLVQPGGSLRLSCSASGFTFSSFGMHWVRQAPGKGLEWVAYISSGSSTIYYGDTVKGRFTISRDNAKNSLFLQMSSLRAEDTAVYYCAREGGYYYGRSYYTMDYWGQGTTVTVSS
VL: DVVMTQSPLSLPVTPGAPASISCRSSQSIVHSNGNTYLEWYLQKPGQSPKLLIYKVSNRFSGVPDRFSGSGSGTDFTLRISRVEAEDVGIYYCFQGSHVPPTFGPGTKLEIK
- less decline in measures of cognition and function as compared to a placebo (early Alzheimer’s): 25%
